# Results published in US9457033B2, “Steroid alkaloids and uses thereof as antimicrobial agents against electron transport-deficient microbes and as potentiators for antimicrobial agents against pathogenic bacteria” (priority 2011, dated 2016).
# Like-named read-outs stand apart in the source and are kept apart here.
# Legend:
# [1] = tested on: S. aureus SCV NewbouldΔhemB; experiment: MIC, microdilution in BHI 48 h; format: cell-based, Staphylococcus aureus; conditions: Staphylococcus aureus
# S. aureus SCV CF07-S = experiment: MIC, microdilution in BHI 48 h (Examples 1, 3); format: cell-based, Staphylococcus aureus
# S. aureus SCV CF6A-S = experiment: microbe, parasite or virus in culture; format: cell-based; conditions: Staphylococcus aureus, SCVCF6AS; Tomatidine (50 μg); thymidine auxotrophy; 24 hours at 37° C. with O2; DMSO control 0; read-out: Diameter of inhibition zone
# [2] = tested on: S. aureus CF1A-L (normal strain); experiment: MIC, microdilution in BHI 48 h; format: cell-based, Staphylococcus aureus; conditions: Staphylococcus aureus; CF1A-L, normal strain; read-out: MIC
# [3] = tested on: S. aureus Newbould (normal strain); experiment: MIC, microdilution in BHI 48 h; format: cell-based, Staphylococcus aureus; conditions: Staphylococcus aureus; Newbould, normal strain; read-out: MIC
# S. aureus SCV CF1D-S = experiment: MIC, microdilution in BHI 48 h; format: cell-based, Staphylococcus aureus; conditions: Staphylococcus aureus, SCVCF1DS
# [4] = tested on: S. aureus SCVs (NewbouldΔhemB, CF07-S and CF1D-S); experiment: MIC, microdilution in BHI 48 h, summary for SCVs; format: cell-based, Staphylococcus aureus; conditions: Staphylococcus aureus, read-out: MIC against all SCVs
# S. aureus ATCC 29213 = experiment: MIC, microdilution in BHI 48 h (Examples 1, 3); format: cell-based, Staphylococcus aureus
# [5] = tested on: S. aureus CF07-L (normal strain); experiment: MIC, microdilution in BHI 48 h (Examples 1, 3); format: cell-based, Staphylococcus aureus
# S. aureus SCV CF07S = experiment: microbe, parasite or virus in culture; format: cell-based; conditions: Staphylococcus aureus, SCVCF07S; Tomatidine (50 μg); menadione auxotrophy; 24 hours at 37° C. with O2; DMSO control 0; read-out: Diameter of inhibition zone
# normal strain CF07-L = experiment: Broth growth with gentamicin or tomatidine, visually evaluated (FIG. 5A); conditions: gentamicin at 4 μg/ml or tomatidine at 0.12 μg/ml alone, 48 h
smiles,measurement,setting,value
"C[C@H]1CC[C@]2(NC1)O[C@H]1C[C@H]3[C@@H]4CC[C@H]5C[C@@H](O)CC[C@]5(C)[C@H]4CC[C@]3(C)[C@H]1[C@@H]2C [Tomatidine, tomatidine]",MIC,[1],0.12 µg/mL
same,MIC,S. aureus SCV CF07-S; CF07-S + HQNO at 20 μg/ml,0.12 µg/mL
same,MIC,"S. aureus SCV CF07-S; CF07-S, without HQNO",0.12 µg/mL
same,MIC,"S. aureus SCV CF07-S; Staphylococcus aureus, SCVCF07S",0.12 µg/mL
same,zone of inhibition at 50 µg/disc,S. aureus SCV CF6A-S,23 mm
same,MIC,[2],> 16 µg/mL
same,MIC,[3],> 16 µg/mL
same,MIC,S. aureus SCV CF1D-S,0.12 µg/mL
same,MIC,[4],0.12 µg/mL
same,MIC,S. aureus ATCC 29213; ATCC 29213 + HQNO at 20 μg/ml,0.12 to 0.25 µg/mL
same,MIC,"S. aureus ATCC 29213; ATCC 29213, without HQNO",>16 µg/mL
same,MIC,S. aureus ATCC 29213; ATCC 29213 in MHBCA,>16 µg/mL
same,MIC,"S. aureus ATCC 29213; Staphylococcus aureus, ATCC29213, ATCC 29213 in BHI, read-out: MIC",> 16 µg/mL
same,MIC,"S. aureus ATCC 29213; Staphylococcus aureus, ATCC29213, ATCC 29213, 1 μg/ml CCCP, read-out: MIC in presence of CCCP",0.12 µg/mL
same,MIC,[5]; CF07-L + HQNO at 20 μg/ml,0.5 µg/mL
same,MIC,"[5]; CF07-L, without HQNO",>16 µg/mL
same,MIC,"[5]; Staphylococcus aureus, CF07-L, normal strain, read-out: MIC",> 16 µg/mL
same,zone of inhibition at 50 µg/disc,S. aureus SCV CF07S,22.5 mm
same,"growth, visually evaluated",normal strain CF07-L,does not
